Laboratory results: US8828997B2, “2,3-dihydro-1H-imidazo(1,2-a)pyrimidin-5-one derivatives, preparation thereof, and pharmaceutical use thereof” (Sanofi, priority 2009, dated 2014)

Experiments:
[1] = tested on: AKT protein phosphorylated on serine 473 (P-AKT-S473) in PC3 human prostate carcinoma cells; test: pAKT expression in PC3 human prostate carcinoma cells measured by MSD Multi-spot Biomarker detection (test B); format: cell-based; conditions: MSD sandwich immunoassay, 1 to 2 h incubation, absolute IC50
Protocol: The inhibitory activity of the molecules on AKT phosphorylation is measured either by western blotting using the technique described below, or by the MSD Multi-spot Biomarker detection technique from Meso Scale Discovery also described below.
Study of pAKT Expression in PC3 Human Prostate Carcinoma Cells Measured by the MSD Multi-Spot Biomarker Detection Technique from Meso Scale Discovery (Test B):
This test is based on measuring the expression of the AKT protein phosphorylated on serine 473 (P-AKT-S473), in the PC3 human prostate carcinoma line, by means of the technique based on a sandwich immunoassay using the MSD Multi-spot Biomarker Detection kit from Meso Scale Discovery: phospho-Akt (Ser473) whole cell lysate kit (#K151CAD) or phospho-Akt (Ser473)/Total Akt whole cell lysate kit (#K151OOD). The primary antibody specific for P-AKT-S473 (Kit #K151CAD) is coated onto an electrode in each well of the 96-well plates of the MSD kit: after the addition of a protein lysate to each well, the signal is visualised by adding a secondary detection antibody labelled with an electrochemoluminescent compound. The procedure followed is that described in the kit.
(§1) On day 1, the PC3 cells are seeded into 96-well plates (TPP, #92096) at the concentration of 35 000 cells/well in 200 μl of DMEM medium (DMEM Gibco #11960-044) containing 10% of foetal calf serum (FCS Gibco, #10500-056) and 1% glutamine (L-Glu Gibco #25030-024), and incubated at 37° C., 5% CO2, overnight.
On day 2, the cells are incubated in the presence or absence of the test products for 1 to 2 h at 37° C. in the presence of 5% of CO2. The molecules, diluted in dimethyl sulphoxide (DMSO Sigma #D2650), are added from a 20-times concentrated stock solution, the final percentage of DMSO being 0.1%. The molecules are tested either at a single concentration of less than or equal to 10 μM, or at increasing concentrations in a range that can extend from less than 1 nM to 10 μM.
After this incubation, the cells are lysed for the preparation of the proteins. For this, after the culture medium has been drawn off, 50 μl of complete Tris Lysis Buffer of the MSD kit containing the protease and phosphatase inhibitor solutions are added to the wells and the cells are lysed for 1 h at 4° C. with shaking. At this stage, the plates containing the lysates can be stored at −20° C. or at −80° C.
The wells of the 96-well plates of the MSD kit are saturated for 1 h at ambient temperature with the blocking solution of the MSD kit. Four washes are carried out with 150 μl of Tris Wash Buffer of the MSD kit. The lysates previously prepared are transferred into the 96-well multi-spot plates of the MSD kit and incubated for 1 h at ambient temperature, with shaking. Four washes are carried out with 150 μl of Tris Wash Buffer of the MSD kit. 25 μl of the MSD sulfo-tag detection antibody solution are added to the wells and incubated for 1 h at ambient temperature, with shaking. Four washes are carried out with 150 μl of Tris Wash Buffer of the MSD kit. 150 μl of Read Buffer of the MSD kit are added to the wells and the plates are read immediately on the S12400 instrument from Meso Scale Discovery.
The instrument measures a signal for each well. Wells without cells and containing the lysis buffer serve to determine the background noise that will be subtracted from all the measurements (min). The wells containing cells in the absence of product and in the presence of 0.1% DMSO are considered to be the 100% signal (max). The percentage inhibition is calculated for each concentration of test product according to the following formula: (1-((test−min)/(max−min)))×100.
The activity of the product is translated to IC50, obtained from a dose-response curve of the various concentrations tested and representing the dose giving 50% specific inhibition (absolute IC50). 2 independent experiments make it possible to calculate the mean of the IC50 values.

[2] = tested on: translocation of the LC3 protein in Hela GFP-LC3 cells; test: Translocation of the LC3 protein in Hela human cells measured by image analysis cytometry (test C, autophagy); format: cell-based; conditions: EBSS + 10 μM hydroxychloroquine, cells with LC3 granulations, absolute IC50
Protocol: Inhibitory activity of the molecules on autophagy is measured by means of the translocation of the LC3 protein from the cytoplasm to the autophagosomes. For this, Hela cells were transfected with a vector encoding the chimeric protein GFP-LC3. A Hela clone stably expressing the GFP-LC3 protein was selected.
Study of the Translocation of the LC3 Protein in Hela Human Cells, Measured by Image Analysis Cytometry (Test C):
as §1, with “Hela GFP-LC3” for “PC3”, “coated with poly-D-lysine (Greiner, #655946)” for “(TPP, #92096)”, “15000” for “35 000”
On day 2, the cells are washed twice with EBSS (Sigma #E3024). The cells are then incubated in EBSS, 10 μM hydroxychloroquine and test products, for 2 hours at 37° C. in the presence of 5% CO2. The molecules are diluted in dimethyl sulphoxide (DMSO Sigma #D2650), the final DMSO percentage being 0.1%. The molecules are tested at increasing concentrations in a range that can extend from 10 nM to 1 μM.
After this incubation, the cells are fixed with 4% paraformaldehyde (Sigma #HT501128 4L) for 10 min. The cells are then washed twice with PBS and the nuclei then stained with 2 μg/ml of Hoechst 33342 (Invitrogen #H3570). The 96-well plates are then read with the iCyte image analysis cytometer (Compucyte).
The activity of the product is translated to IC50, obtained from a dose-response curve of various concentrations tested and representing the dose giving 50% specific inhibition (absolute IC50). 2 independent experiments make it possible to calculate the mean of the IC50 values.

[3] = Homo sapiens, PC-3, P-AKT-S473, PC3 cells

| IC50 [1, 3] | IC50 ([2]; Homo sapiens, HeLa, 2 h) | IC50 ([1]; P-AKT-S473, PC3 cells) | IC50 ([2]; 2 hours) | SMILES |
| --- | --- | --- | --- | --- |
| 42 nM | 461 nM | – | – | C[C@@]1(C(F)(F)F)Cn2c(nc(N3CCOCC3)cc2=O)N1Cc1c[nH]c2ccccc12 [Example 33, (2S)-1-(1H-indol-3-ylmethyl)-2-methyl-7-(morpholin-4-yl)-2-(trifluoromethyl)-2,3-dihydroimidazo[1,2-a]pyrimidin-5(1H)-one] |
| 89 nM | > 1000 nM | – | – | C[C@@]1(C(F)(F)F)Cn2c(nc(N3CCOCC3)cc2=O)N1Cc1nc2ccccc2o1 [Example 30, (2S)-1-(1,3-Benzoxazol-2-ylmethyl)-2-methyl-7-(morpholin-4-yl)-2-(trifluoromethyl)-2,3-dihydroimidazo[1,2-a]pyrimidin-5(1H)-one] |
| – | – | 22 nM | > 1000 nM | CC(c1ccccc1)N1c2nc(N3CCOCC3)cc(=O)n2C[C@@]1(C)C(F)(F)F (single isomer, unassigned) [Example 32, (2S)-2-Methyl-7-(morpholin-4-yl)-1-[(1R or 1S)-1-phenylethyl]-2-(trifluoromethyl)-2,3-dihydroimidazo[1,2-a]pyrimidin-5(1H)-one] |
| 13 nM | 314 nM | – | – | C[C@@]1(C(F)(F)F)Cn2c(nc(N3CCOCC3)cc2=O)N1Cc1ccc(F)c(Br)c1 [Example 24, (2S)-1-(3-Bromo-4-fluorobenzyl)-2-methyl-7-(morpholin-4-yl)-2-(trifluoromethyl)-2,3-dihydroimidazo[1,2-a]pyrimidin-5(1H)-one] |
| – | – | 19 nM | 737 nM | CC(c1ccccc1F)N1c2nc(N3CCOCC3)cc(=O)n2C[C@@]1(C)C(F)(F)F (single isomer, unassigned) [Example 37, (2S)-1-[(1R or 1S)-1-(2-Fluorophenyl)ethyl]-2-methyl-7-(morpholin-4-yl)-2-(trifluoromethyl)-2,3-dihydroimidazo[1,2-a]pyrimidin-5(1H)-one] |
| – | – | 60 nM | 334 nM | CC(c1ccccc1)N1c2nc(N3CCOCC3)cc(=O)n2C[C@@]1(C)C(F)(F)F (single isomer, unassigned) [Example 31, (2S)-2-Methyl-7-(morpholin-4-yl)-1-[(1R or 1S)-1-phenylethyl]-2-(trifluoromethyl)-2,3-dihydroimidazo[1,2-a]pyrimidin-5(1H)-one] |
| 7 nM | > 1000 nM | – | – | C[C@@]1(C(F)(F)F)Cn2c(nc(N3CCOCC3)cc2=O)N1C(=O)c1ccccc1 [Example 21, (2S)-2-Methyl-7-(morpholin-4-yl)-1-(phenylcarbonyl)-2-(trifluoromethyl)-2,3-dihydroimidazo[1,2-a]pyrimidin-5(1H)-one] |
| – | 995 nM | 4 nM | – | CC(c1ccccc1F)N1c2nc(N3CCOCC3)cc(=O)n2C[C@@]1(C)C(F)(F)F (single isomer, unassigned) [Example 36, (2S)-1-[(1R or 1S)-1-(2-Fluorophenyl)ethyl]-2-methyl-7-(morpholin-4-yl)-2-(trifluoromethyl)-2,3-dihydroimidazo[1,2-a]pyrimidin-5(1H)-one] |
| 32 nM | > 1000 nM | – | – | Cc1ccccc1C(=O)N1c2nc(N3CCOCC3)cc(=O)n2C[C@@]1(C)C(F)(F)F [Example 35, (2S)-2-Methyl-1-[(2-methylphenyl)carbonyl]-7-(morpholin-4-yl)-2-(trifluoromethyl)-2,3-dihydroimidazo[1,2-a]pyrimidin-5(1H)-one] |
| 28 nM | 621 nM | – | – | C[C@@]1(C(F)(F)F)Cn2c(nc(N3CCOCC3)cc2=O)N1Cc1cccc(F)c1F [Example 25, (2S)-1-(2,3-Difluorobenzyl)-2-methyl-7-(morpholin-4-yl)-2-(trifluoromethyl)-2,3-dihydroimidazo[1,2-a]pyrimidin-5(1H)-one] |
| 26 nM | 425 nM | – | – | C[C@@]1(C(F)(F)F)Cn2c(nc(N3CCOCC3)c(F)c2=O)N1Cc1ccccc1 [Example 19, (2S)-1-Benzyl-6-fluoro-2-methyl-7-(morpholin-4-yl)-2-(trifluoromethyl)-2,3-dihydroimidazo[1,2-a]pyrimidin-5(1H)-one] |
